Measured values taken from patent US10526327B2, “Histone demethylase inhibitors” (CELGENE QUANTICEL RESEARCH, INC., priority 2013, dated 2020).

Key:
[1] = molecular target: T1, Jarid1B (Homo sapiens, UniProt Q9UGL1); experiment: Jarid1B in vitro enzyme inhibition assay (TR-FRET); format: biochemical
T1 construct: purchased BPS Bioscience or custom made by MolecularThroughput 50121
T1 sequence (Q9UGL1 2-751): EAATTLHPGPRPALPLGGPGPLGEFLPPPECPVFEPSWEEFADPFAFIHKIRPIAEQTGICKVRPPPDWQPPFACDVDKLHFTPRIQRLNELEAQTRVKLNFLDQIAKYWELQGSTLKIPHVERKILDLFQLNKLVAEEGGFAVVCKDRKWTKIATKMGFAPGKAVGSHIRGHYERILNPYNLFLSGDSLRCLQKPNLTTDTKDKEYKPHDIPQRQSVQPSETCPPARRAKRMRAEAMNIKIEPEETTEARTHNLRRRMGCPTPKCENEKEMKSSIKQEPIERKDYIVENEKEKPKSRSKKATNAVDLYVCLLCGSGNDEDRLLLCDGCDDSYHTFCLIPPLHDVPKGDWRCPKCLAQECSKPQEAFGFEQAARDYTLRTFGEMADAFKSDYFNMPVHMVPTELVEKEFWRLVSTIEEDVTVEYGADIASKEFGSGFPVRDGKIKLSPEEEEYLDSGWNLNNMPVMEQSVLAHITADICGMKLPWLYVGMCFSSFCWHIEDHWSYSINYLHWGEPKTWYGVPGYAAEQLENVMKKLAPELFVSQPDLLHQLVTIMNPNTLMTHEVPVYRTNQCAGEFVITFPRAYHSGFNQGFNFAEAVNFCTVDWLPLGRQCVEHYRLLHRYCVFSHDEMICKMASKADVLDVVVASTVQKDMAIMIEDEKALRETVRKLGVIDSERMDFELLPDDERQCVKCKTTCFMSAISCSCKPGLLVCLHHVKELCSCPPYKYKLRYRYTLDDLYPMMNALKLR
Description: (§1) This assay determines the ability of a test compound to inhibit Jarid1A, Jarid1B, and JMJD2C demethylase activity. Baculovirus expressed Jarid1A (GenBank Accession #NM_001042603, AA1-1090) was purchased from BPS Bioscience (Cat#50110). Baculovirus expressed Jarid1B (GenBank Accession #NM_006618, AA 2-751) was purchased from BPS Bioscience (Cat #50121) or custom made by MolecularThroughput. Baculovirus expressed JMJD2C (GenBank Accession #BC143571, AA 2-372) was purchased from BPS Bioscience (Cat#50105).
The ability of test compounds to inhibit the activity of Jarid1B was determined in 384-well plate format under the following reaction conditions: 0.8 nM Jarid1B, 300 nM H3K4me3-biotin labeled peptide (Anaspec cat #64357), 2 μM alpha-ketoglutaric acid in assay buffer of 50 mM HEPES, pH7.3, 0.005% Brij35, 0.5 mM TCEP, 0.2 mg/ml BSA, 50 μM sodium L-ascorbate, and 2 μM ammonium iron(II) sulfate. Reaction product was determined quantitatively by TR-FRET after the addition of detection reagent Phycolink Streptavidin-allophycocyanin (Prozyme) and Europium-anti-mono-or di-methylated histone H3 lysine 4 (H3K4me1-2) antibody (PerkinElmer) in the presence of 5 mM EDTA in LANCE detection buffer (PerkinElmer) at a final concentration of 25 nM and 1 nM, respectively.
(§2) The assay reaction was initiated by the following: 2 μl of the mixture of 900 nM H3K4me3-biotin labeled peptide and 6 μM alpha-ketoglutaric acid with 2 μl of 11-point serial diluted inhibitor in 3% DMSO was added to each well of the plate, followed by the addition of 2 μl of 2.4 nM Jarid1B to initiate the reaction. The reaction mixture was incubated at room temperature for 30 minutes, and terminated by the addition of 6 μl of 5 mM EDTA in LANCE detection buffer containing 50 nM Phycolink Streptavidin-allophycocyanin and 2 nM Europium-anti-H3K4me1-2 antibody. Plates were read by EnVisionMultilabel Reader in TR-FRET mode (excitation at 320 nm, emission at 615 nm and 665 nm) after 1 hour incubation at room temperature. A ratio was calculated (665/615) for each well and fitted to determine inhibition constant (IC50).

[2] = molecular target: T2, JMJD2C (Homo sapiens, UniProt Q9H3R0); experiment: JMJD2C in vitro enzyme inhibition assay (TR-FRET); format: biochemical
T2 construct: purchased BPS Bioscience 50105
T2 sequence (Q9H3R0 2-372): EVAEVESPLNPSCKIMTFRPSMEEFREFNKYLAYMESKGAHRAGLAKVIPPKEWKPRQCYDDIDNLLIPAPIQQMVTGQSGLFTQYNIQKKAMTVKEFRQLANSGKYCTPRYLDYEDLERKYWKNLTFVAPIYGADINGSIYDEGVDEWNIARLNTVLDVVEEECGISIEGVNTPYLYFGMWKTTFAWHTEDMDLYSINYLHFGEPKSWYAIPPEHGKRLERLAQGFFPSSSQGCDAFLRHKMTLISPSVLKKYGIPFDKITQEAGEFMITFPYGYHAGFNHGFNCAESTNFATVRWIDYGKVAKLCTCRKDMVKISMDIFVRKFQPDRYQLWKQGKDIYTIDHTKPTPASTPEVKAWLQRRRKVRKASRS
Description: as §1
The ability of test compounds to inhibit the activity of JMJD2C was determined in 384-well plate format under the following reaction conditions: 0.3 nM JMJD2C, 300 nM H3K9me3-biotin labeled peptide (Anaspec cat #64360), 2 μM alpha-ketoglutaric acid in assay buffer of 50 mM HEPES, pH7.3, 0.005% Brij35, 0.5 mM TCEP, 0.2 mg/ml BSA, 50 μM sodium L-ascorbate, and 2 μM ammonium iron(II) sulfate. Reaction product was determined quantitatively by TR-FRET after the addition of detection reagent Phycolink Streptavidin-allophycocyanin (Prozyme) and Europium-anti-di-methylated histone H3 lysine 9 (H3K9me2) antibody (PerkinElmer) in the presence of 5 mM EDTA in LANCE detection buffer (PerkinElmer) at a final concentration of 50 nM and 1 nM, respectively.
as §2, with “nM H3K9me3-biotin” for “nM H3K4me3-biotin”, “DMSO were” for “DMSO was”, “of 0.9” for “of 2.4”, “nM JMJD2C” for “nM Jarid1B”, “containing 100” for “containing 50”, “nM Europium-anti-H3K9me2” for “nM Europium-anti-H3K4me1-2”

Compound | IC50 [1] [nM] | IC50 [2] [nM]
CC(C)(C)OC(=O)N1CCC(n2cc(Oc3nc(O)c4ccncc4n3)cn2)CC1 [Example 88, tert-butyl 4-[4-(4-hydroxypyrido[3,4-d]pyrimidin-2-yl)oxypyrazol-1-yl]piperidine-1-carboxylate] | ≤ 100 | 100 to 1000
Oc1nc(Oc2cnn(C3CCNCC3)c2)nc2cnccc12 [Example 89, 2-(1-piperidin-4-ylpyrazol-4-yl)oxypyrido[3,4-d]pyrimidin-4-ol] | ≤ 100 | ≤ 100
CC(=O)N1CCC(n2cc(Oc3nc(O)c4ccncc4n3)cn2)CC1 [Example 90, 1-[4-[4-(4-hydroxypyrido[3,4-d]pyrimidin-2-yl)oxypyrazol-1-yl]piperidin-1-yl]ethanone] | ≤ 100 | ≤ 100
C=CC(=O)N1CCC(n2cc(Oc3nc(O)c4ccncc4n3)cn2)CC1 [Example 91, 1-[4-[4-(4-hydroxypyrido[3,4-d]pyrimidin-2-yl)oxypyrazol-1-yl]piperidin-1-yl]prop-2-en-1-one] | ≤ 100 | 100 to 1000
O=C(C1CC1)N1CCC(n2cc(Oc3nc(O)c4ccncc4n3)cn2)CC1 [Example 92, cyclopropyl-[4-[4-(4-hydroxypyrido[3,4-d]pyrimidin-2-yl)oxypyrazol-1-yl]piperidin-1-yl]methanone] | ≤ 100 | ≤ 100
O=C(c1ccc(F)cc1)N1CCC(n2cc(Oc3nc(O)c4ccncc4n3)cn2)CC1 [Example 93, (4-fluorophenyl)-[4-[4-(4-hydroxypyrido[3,4-d]pyrimidin-2-yl)oxypyrazol-1-yl]piperidin-1-yl]methanone] | ≤ 100 | ≤ 100
O=S(=O)(C1CC1)N1CCC(n2cc(Oc3nc(O)c4ccncc4n3)cn2)CC1 [Example 94, 2-[1-(1-cyclopropylsulfonylpiperidin-4-yl)pyrazol-4-yl]oxypyrido[3,4-d]pyrimidin-4-ol] | ≤ 100 | ≤ 100
O=S(=O)(c1ccccc1)N1CCC(n2cc(Oc3nc(O)c4ccncc4n3)cn2)CC1 [Example 95, 2-[1-[1-(benzenesulfonyl)piperidin-4-yl]pyrazol-4-yl]oxypyrido[3,4-d]pyrimidin-4-ol] | ≤ 100 | ≤ 100
Oc1nc(Oc2ccnc(N3CCNCC3)c2)nc2cnccc12 [Example 96, 2-(2-piperazin-1-ylpyridin-4-yl)oxypyrido[3,4-d]pyrimidin-4-ol] | ≤ 100 | 100 to 1000
Oc1nc(Oc2ccnc(N3CCOCC3)c2)nc2cnccc12 [Example 97, 2-(2-morpholin-4-ylpyridin-4-yl)oxypyrido[3,4-d]pyrimidin-4-ol] | ≤ 100 | 100 to 1000
Cn1cnc(-c2nccc3c(O)nc(OCC(C)(C)O)nc23)c1 [Example 98, 2-(2-hydroxy-2-methylpropoxy)-8-(1-methylimidazol-4-yl)pyrido[3,4-d]pyrimidin-4-ol] | 100 to 1000 | 1000 to 10000
CC(c1ccccc1)n1cc(Oc2nc(O)c3ccncc3n2)cn1 (centres unmarked) [Example 99] | ≤ 100 | 100 to 1000
Cn1cnc(-c2nccc3c(O)nc(Oc4cnn(C5CCOCC5)c4)nc23)c1 [Example 100, 8-(1-methylimidazol-4-yl)-2-[1-(oxan-4-yl)pyrazol-4-yl]oxypyrido[3,4-d]pyrimidin-4-ol] | ≤ 100 | 100 to 1000
Cn1cnc(-c2nccc3c(O)nc(OCc4ccccc4)nc23)c1 [Example 101, 8-(1-methylimidazol-4-yl)-2-phenylmethoxypyrido[3,4-d]pyrimidin-4-ol] | ≤ 100 | 100 to 1000
Cn1cnc(-c2nccc3c(O)nc(OCC4CCOCC4)nc23)c1 [Example 102, 8-(1-methyl-1H-imidazol-4-yl)-2-(oxan-4-ylmethoxy)pyrido[3,4-d]pyrimidin-4-ol] | 100 to 1000 | ≤ 100

Now from value to molecule:

IC50 [1] [nM] | IC50 [2] [nM] | Compound
≤ 100 | 100 to 1000 | Cn1cnc(-c2nccc3c(O)nc(Oc4ccc(F)c(F)c4)nc23)c1 [Example 81, 2-(3,4-difluorophenoxy)-8-(1-methylimidazol-4-yl)pyrido[3,4-d]pyrimidin-4-ol]
≤ 100 | 100 to 1000 | COCCOc1ccc(Oc2nc(O)c3ccnc(-c4cn(C)cn4)c3n2)cc1 [Example 82, 2-[4-(2-methoxyethoxy)phenoxy]-8-(1-methylimidazol-4-yl)pyrido[3,4-d]pyrimidin-4-ol]
≤ 100 | 100 to 1000 | Cn1cnc(-c2nccc3c(O)nc(Oc4ccc5cnn(C)c5c4)nc23)c1 [Example 83, 8-(1-methylimidazol-4-yl)-2-(1-methylindazol-6-yl)oxypyrido[3,4-d]pyrimidin-4-ol]
≤ 100 | 100 to 1000 | CCn1ncc2ccc(Oc3nc(O)c4ccnc(-c5cn(C)cn5)c4n3)cc21 [Example 84, 2-(1-ethylindazol-6-yl)oxy-8-(1-methylimidazol-4-yl)pyrido[3,4-d]pyrimidin-4-ol]
≤ 100 | 100 to 1000 | Cc1nn(C)c2cc(Oc3nc(O)c4ccnc(-c5cn(C)cn5)c4n3)ccc12 [Example 85, 2-(1,3-dimethylindazol-6-yl)oxy-8-(1-methylimidazol-4-yl)pyrido[3,4-d]pyrimidin-4-ol]
≤ 100 | ≤ 100 | Oc1nc(Oc2cnn(Cc3ccc(F)cc3)c2)nc2cnccc12 [Example 86, 2-[1-(4-fluorobenzyl)pyrazol-4-yl]oxypyrido[3,4-d]pyrimidin-4-ol]
≤ 100 | ≤ 100 | Oc1nc(Oc2cnn(Cc3ccccc3F)c2)nc2cnccc12 [Example 87, 2-[1-(2-fluorobenzyl)pyrazol-4-yl]oxypyrido[3,4-d]pyrimidin-4-ol]
